Data taken from US9789082B2, “Somatostatin receptor subtype 4 (SSTR4) agonists” (Centrexion Therapeutics Corporation, priority 2013, dated 2017).
Like-named read-outs stand apart in the source and are kept apart here.

Experiments:
[1] = Metabolic stability in pooled human liver microsomes (half-life); format: in vitro ADME; conditions: 1 μM test compound; for half-life at 1 μM: pooled human liver microsomes, pH 7.6, 37° C., read-out: Half-life t1/2; for Half-life t1/2: 37° C.
Procedure: The metabolic stability of the compounds according to the invention may be investigated as follows:
The metabolic degradation of the test compound is assayed at 37° C. with pooled human liver microsomes. The final incubation volume of 100 μl per time point contains TRIS buffer pH 7.6 at room temperature (0.1 M), magnesium chloride (5 mM), microsomal protein (1 mg/mL) and the test compound at a final concentration of 1 μM. Following a short preincubation period at 37° C., the reactions are initiated by addition of beta-nicotinamide adenine dinucleotide phosphate, reduced form (NADPH, 1 mM), and terminated by transferring an aliquot into solvent after different time points. After centrifugation (10000 g, 5 min), an aliquot of the supernatant is assayed by LC-MS/MS for the amount of parent compound. The half-life is determined by the slope of the semi-logarithmic plot of the concentration-time profile.

[2] = target: human SSTR1 (Homo sapiens (Human), UniProt P30872); test: Radioligand binding assay, CHO cell membranes expressing recombinant human SSTR1
From the text: (§1) Radioligand Binding Assays
(§2) Method Description for Binding Assays with Human Somatostatin Receptors by Use of CHO Cell Membranes Expressing Recombinant Human SSTR1 or Human SSTR2 or Human SSTR3 or Human SSTR4 or Human SSTR5
(§3) Receptor binding assays refer to a technique in which labeled receptor ligands are used to detect binding to a receptor. In competition experiments test compounds, which are not labeled, compete with the binding side of a labeled ligand. The displacement of the labeled ligand by the test compound leads to a decreased signal.
(§4) For the binding experiments 200 μL of membrane homogenate from one of the following protein amounts is used: hSSTR1 (40 μg/well); hSSTR2 (25 μg/well); hSSTR3 (1.5 μg/well); hSSTR4 (0.5 μg/well); hSSTR5 (25 μg/well). […] The incubation is terminated by filtration with ice cold NaCl 0.9% through polyethyleneimine treated (0.3%) GF/B glass fiber filters using a cell harvester. The protein-bound radioactivity is measured in a suitable reader. The non-specific binding is defined as radioactivity bound in the presence of 1 μM Somatostatin-14 during the incubation period.
(§5) The analysis of the concentration-binding curves is performed by computer-assisted nonlinear least square curve fitting method using the model of one receptor binding site.
(§6) Selectivity data was obtained with the aid of the above described radioligand binding assays.

[3] = target: human SSTR5 (Homo sapiens (Human), UniProt P35346); test: Radioligand binding assay, CHO cell membranes expressing recombinant human SSTR5
From the text: as §1, §2, §3, §4, §5, §6

[4] = target: human SSTR4 (Homo sapiens (Human), UniProt P31391); test: Radioligand binding assay, CHO cell membranes expressing recombinant human SSTR4
From the text: as §1, §2, §3, §4, §5, §6

[5] = target: human SSTR2 (Homo sapiens (Human), UniProt P30874); test: Radioligand binding assay, CHO cell membranes expressing recombinant human SSTR2
From the text: as §1, §2, §3, §4, §5, §6

[6] = target: human SSTR3 (Homo sapiens (Human), UniProt P32745); test: Radioligand binding assay, CHO cell membranes expressing recombinant human SSTR3
From the text: as §1, §2, §3, §4, §5, §6

[7] = target: human Somatostatin 4 receptor (SSTR4) (Homo sapiens (Human), UniProt P31391); test: cAMP assay with human somatostatin 4 receptor (hSSTR4 expressing H4 cells); format: cell-based
[8] = cAMP assay, read-out: SSTR4 agonism EC50

human SSTR3, sequence (P32745 whole entry): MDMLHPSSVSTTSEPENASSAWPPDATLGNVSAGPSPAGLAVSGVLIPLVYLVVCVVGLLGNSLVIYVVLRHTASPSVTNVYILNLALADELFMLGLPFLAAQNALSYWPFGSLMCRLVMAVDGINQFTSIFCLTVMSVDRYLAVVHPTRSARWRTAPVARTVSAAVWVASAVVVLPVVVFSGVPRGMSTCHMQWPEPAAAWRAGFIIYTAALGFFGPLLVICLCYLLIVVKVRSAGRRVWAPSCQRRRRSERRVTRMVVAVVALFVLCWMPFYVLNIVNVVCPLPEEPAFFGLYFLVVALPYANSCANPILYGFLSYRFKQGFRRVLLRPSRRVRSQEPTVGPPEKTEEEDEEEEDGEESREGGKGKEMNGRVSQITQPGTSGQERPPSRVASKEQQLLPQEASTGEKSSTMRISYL
human SSTR1, sequence (P30872 whole entry): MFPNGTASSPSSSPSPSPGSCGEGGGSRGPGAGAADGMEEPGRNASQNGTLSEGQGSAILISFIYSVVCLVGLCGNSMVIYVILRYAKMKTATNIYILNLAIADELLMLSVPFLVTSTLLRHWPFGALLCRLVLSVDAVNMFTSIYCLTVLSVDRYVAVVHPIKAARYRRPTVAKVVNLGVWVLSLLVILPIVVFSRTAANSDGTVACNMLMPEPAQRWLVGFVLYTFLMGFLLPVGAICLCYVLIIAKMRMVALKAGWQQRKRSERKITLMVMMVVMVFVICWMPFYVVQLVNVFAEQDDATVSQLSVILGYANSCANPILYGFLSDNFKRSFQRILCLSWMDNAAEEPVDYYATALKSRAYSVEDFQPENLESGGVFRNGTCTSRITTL
human SSTR2, sequence (P30874 whole entry): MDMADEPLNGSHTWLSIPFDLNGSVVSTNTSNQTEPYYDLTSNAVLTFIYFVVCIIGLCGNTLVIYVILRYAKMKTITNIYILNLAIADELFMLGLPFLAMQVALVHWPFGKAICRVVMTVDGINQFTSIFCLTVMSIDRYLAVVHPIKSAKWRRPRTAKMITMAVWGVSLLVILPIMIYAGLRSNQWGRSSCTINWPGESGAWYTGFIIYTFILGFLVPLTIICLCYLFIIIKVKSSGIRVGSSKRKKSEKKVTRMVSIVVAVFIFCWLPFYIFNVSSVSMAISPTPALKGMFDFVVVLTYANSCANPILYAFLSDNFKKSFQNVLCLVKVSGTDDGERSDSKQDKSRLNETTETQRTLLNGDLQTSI
human SSTR4, sequence (P31391 whole entry): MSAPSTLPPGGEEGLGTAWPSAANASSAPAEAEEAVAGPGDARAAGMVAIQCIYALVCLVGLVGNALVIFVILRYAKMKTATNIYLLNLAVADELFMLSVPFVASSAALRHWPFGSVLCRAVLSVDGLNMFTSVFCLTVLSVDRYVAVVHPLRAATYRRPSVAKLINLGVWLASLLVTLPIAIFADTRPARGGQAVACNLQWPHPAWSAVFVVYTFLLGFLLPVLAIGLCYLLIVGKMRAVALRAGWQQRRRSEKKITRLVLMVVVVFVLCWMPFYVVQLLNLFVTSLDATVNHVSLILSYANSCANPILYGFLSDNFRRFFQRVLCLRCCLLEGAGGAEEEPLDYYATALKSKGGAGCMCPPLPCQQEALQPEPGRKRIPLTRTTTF
human Somatostatin 4 receptor (SSTR4), sequence (P31391 whole entry): as above
human SSTR5, sequence (P35346 whole entry): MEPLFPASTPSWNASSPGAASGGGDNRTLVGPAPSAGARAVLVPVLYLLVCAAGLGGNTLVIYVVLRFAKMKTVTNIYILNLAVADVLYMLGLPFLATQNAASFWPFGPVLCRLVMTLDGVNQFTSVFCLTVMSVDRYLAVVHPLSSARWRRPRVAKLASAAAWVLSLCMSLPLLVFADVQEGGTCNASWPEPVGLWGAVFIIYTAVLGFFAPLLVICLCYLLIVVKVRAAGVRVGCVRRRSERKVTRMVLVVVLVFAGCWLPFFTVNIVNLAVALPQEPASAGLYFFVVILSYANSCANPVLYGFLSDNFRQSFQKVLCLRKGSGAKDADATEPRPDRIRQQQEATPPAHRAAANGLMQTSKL

| SMILES | half-life at 1 μM [1] [h] | Ki [2] [nM] | Ki [3] [nM] | Ki [4] [nM] | Ki [5] [nM] | Ki [6] [nM] | EC50 [7, 8] [nM] | EC50 ([7]; SSTR4 agonism EC50, cAMP assay) [nM] | Half-life t1/2 [1] [h] |
| --- | --- | --- | --- | --- | --- | --- | --- | --- | --- |
| CC(C)(NC(=O)[C@H]1[C@@H]2CNC[C@@H]21)c1nc2ccc(Cl)cc2[nH]1.Cl [Example 11] | > 2.17 | > 8910 | > 9850 | 106 | > 9590 | > 8580 | 8.1 | – | – |
| CC(C)(NC(=O)[C@H]1[C@@H]2CNC[C@@H]21)c1ccnc2ccccc12.Cl [Example 21] | > 2.17 | > 8910 | > 9850 | 10.8 | > 9590 | > 8580 | 0.7 | – | – |
| Cc1cc2ccccc2c(C(C)(C)NC(=O)[C@H]2[C@@H]3CNC[C@@H]32)n1.Cl [Example 22] | > 2.17 | 848 | > 9850 | 3.7 | > 9590 | – | 0.4 | – | – |
| CC(C)(NC(=O)[C@H]1[C@@H]2CNC[C@@H]21)c1nccc2ccccc12.Cl [Example 24] | > 2.17 | 2820 | > 9860 | 2.9 | > 9610 | > 8650 | – | 0.5 | – |
| Cc1cccnc1C(C)(C)NC(=O)[C@H]1[C@@H]2CNC[C@@H]21.Cl.Cl [Example 25] | > 2.17 | > 8960 | > 9860 | 114 | > 9610 | > 8640 | – | 14.8 | – |
| Cc1ccccc1OCC(C)(C)NC(=O)[C@H]1[C@@H]2CNC[C@@H]21.Cl [Example 40] | > 2.17 | > 9760 | > 9850 | 37.1 | > 9600 | > 8630 | 5 | – | – |
| Cc1cccnc1OCC(C)(C)NC(=O)[C@H]1[C@@H]2CNC[C@@H]21 [Example 47] | > 2.17 | > 9150 | > 9850 | 39.9 | > 9600 | > 8620 | 3.7 | – | – |
| Cn1nc(C(C)(C)NC(=O)[C@H]2[C@@H]3CNC[C@@H]32)c2ccccc21 [Example 49] | > 2.17 | 4540 | > 9860 | 4.5 | > 9600 | > 8620 | 0.4 | – | – |
| CC(C)(COc1nccc2ccccc12)NC(=O)[C@H]1[C@@H]2CNC[C@@H]21 [Example 56] | > 2.17 | 3460 | > 9850 | 100 | > 9610 | > 8630 | 5.5 | – | – |
| CC(C)(COc1cnccc1C(F)(F)F)NC(=O)[C@H]1[C@@H]2CNC[C@@H]21 [Example 63] | > 2.17 | > 7510 | > 8080 | 68.9 | > 7880 | > 7070 | – | 4.1 | – |
| Cc1cc2cccnc2c(C(C)(C)NC(=O)[C@H]2[C@@H]3CNC[C@@H]32)n1 [Example 78] | > 2.17 | 6640 | > 9860 | 97.2 | > 9630 | > 8710 | 3.2 | – | – |
| Cc1ncc(C(C)(C)NC(=O)[C@H]2[C@@H]3CNC[C@@H]32)c2ccccc12 [Example 80] | > 2.17 | 508 | > 9860 | 1.2 | > 9630 | > 8710 | 0.3 | – | – |
| Cc1cccc2c(C(C)(C)NC(=O)[C@H]3[C@@H]4CNC[C@@H]43)n[nH]c12 [Example 93] | – | 7030 | > 9770 | – | > 9630 | > 8690 | – | – | >2.17 |
| CC(C)(NC(=O)[C@H]1[C@@H]2CNC[C@@H]21)c1n[nH]c2ccccc12 [Example 94] | – | > 9480 | > 9770 | 15.9 | > 9630 | > 8690 | – | – | >2.17 |
| CC(C)(NC(=O)[C@H]1[C@@H]2CNC[C@@H]21)c1noc2c(F)cccc12 [Example 101] | > 2.17 | > 9090 | > 9850 | 46.2 | > 9600 | > 8600 | 1.2 | – | – |
| Cc1cccc2c(C(C)(C)NC(=O)[C@H]3[C@@H]4CNC[C@@H]43)nn(C)c12 [Example 107] | > 2.17 | 4300 | > 9850 | – | > 9600 | > 8600 | – | – | – |
| Cc1cccn2c(C(C)(C)NC(=O)[C@H]3[C@@H]4CNC[C@@H]43)ncc12.Cl [Example 126] | > 2.17 | 6630 | > 9860 | 3 | > 9630 | > 8710 | – | 0.4 | – |
| Cc1cccn2c(C(C)(C)NC(=O)[C@H]3[C@@H]4CNC[C@@H]43)nc(C3CC3)c12 [Example 128] | > 2.17 | 1100 | > 9860 | 7.6 | > 9630 | 6180 | 0.4 | – | – |

| SMILES | half-life at 1 μM [1] [h] | Ki [2] [nM] | Ki [3] [nM] | Ki [4] [nM] | Ki [5] [nM] | Ki [6] [nM] | EC50 [7, 8] [nM] | EC50 ([7]; SSTR4 agonism EC50, cAMP assay) [nM] | Half-life t1/2 [1] [h] |
| --- | --- | --- | --- | --- | --- | --- | --- | --- | --- |
| Cc1nc(C(C)(C)NC(=O)[C@H]2[C@@H]3CNC[C@@H]32)c2ccccc2n1 [Example 138] | > 2.17 | 7360 | > 9860 | 70.3 | > 9630 | > 8710 | 4.3 | – | – |
| CC(C)(NC(=O)[C@H]1[C@@H]2CNC[C@@H]21)c1nc(C(F)(F)F)nc2ccccc12 [Example 139] | > 2.17 | – | – | – | – | – | 10.9 | – | – |
| COc1cccn2c(C(C)(C)NC(=O)[C@H]3[C@@H]4CNC[C@@H]43)ncc12 [Example 140] | > 2.17 | – | – | – | – | – | 0.6 | – | – |
| CC(C)(NC(=O)[C@H]1[C@@H]2CNC[C@@H]21)c1nc(C2CC2)nc2ccccc12 [Example 141] | > 2.17 | – | – | – | – | – | 3.3 | – | – |
| Cc1cccn2c(C(C)(C)NC(=O)[C@H]3[C@@H]4CNC[C@@H]43)nnc12 [Example 142] | > 2.17 | – | – | – | – | – | 4 | – | – |
| CC(C)(NC(=O)[C@H]1[C@@H]2CNC[C@@H]21)c1ncc2c(Cl)cccn12 [Example 143] | > 2.17 | – | – | – | – | – | 0.3 | – | – |
| Cc1cccn2c(C3(NC(=O)[C@H]4[C@@H]5CNC[C@@H]54)CC3)ncc12 [Example 145] | > 2.17 | – | – | – | – | – | 0.9 | – | – |
| CC(C)(NC(=O)[C@H]1[C@@H]2CNC[C@@H]21)c1ncc2c(C3CC3)cccn12 [Example 146] | > 2.17 | – | – | – | – | – | 2.6 | – | – |
| Cc1nc(C(C)(C)NC(=O)[C@H]2[C@@H]3CNC[C@@H]32)c2cccc(C)c2n1 [Example 148] | > 2.17 | 6670 | > 9770 | 32.3 | > 9630 | > 8690 | – | 1.1 | – |
| CC(C)(NC(=O)[C@H]1[C@@H]2CNC[C@@H]21)c1nc(C2CC2)c2c(F)cccn12 [Example 149] | > 2.17 | – | – | – | – | – | 1 | – | – |
| Cc1cccn2c(C(C)(C)NC(=O)[C@H]3[C@@H]4CNC[C@@H]43)cnc12 [Example 150] | > 2.17 | – | – | – | – | – | 0.9 | – | – |
| Cc1nc(C(C)(C)NC(=O)[C@H]2[C@@H]3CNC[C@@H]32)n2cccc(F)c12 [Example 151] | > 2.17 | – | – | – | – | – | 0.6 | – | – |
| CC(C)(NC(=O)[C@H]1[C@@H]2CNC[C@@H]21)c1ncnc2c(Cl)cccc12 [Example 156] | > 2.17 | – | – | – | – | – | 7.4 | – | – |
| Cc1cc(F)cn2c(C(C)(C)NC(=O)[C@H]3[C@@H]4CNC[C@@H]43)ncc12 [Example 158] | > 2.17 | – | – | – | – | – | 0.8 | – | – |
| Cc1cccn2c([C@H](C)NC(=O)[C@H]3[C@@H]4CNC[C@@H]43)ncc12 [Example 159] | > 2.17 | – | – | – | – | – | 15.4 | – | – |
| CC(C)(NC(=O)[C@H]1[C@@H]2CNC[C@@H]21)c1cnn2ccccc12 [Example 167] | > 2.17 | – | – | – | – | – | 4.9 | – | – |
| CC(C)(NC(=O)[C@H]1[C@@H]2CNC[C@@H]21)c1cnn2c1CCCC2 [Example 168] | > 2.17 | – | – | – | – | – | 47.3 | – | – |
